Data published in the supplement of paper PMC4862054.

Legend:
Settings in all cases: incubation time: 72 h
[1] = test system: HCC1143; experiment: drug sensitivity score (DSS), CellTiter-Blue viability (DSS (AUC-based score)); higher = stronger viability inhibition; extreme values may be limits of the assay
Summary of the method: (§1)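 Breast cancer cell lines in 20 µl suspension were seeded into 384-well plates already holding compound in a 5- or 9-concentration series and incubated for 72 h. CellTiter-Blue reagent (2.5 µl per well) was then added for 2 h at 37 °C, and fluorescence was read at 560/590 nm. Values on each plate were normalised to 0.1 % DMSO and a positive kill control. The drug sensitivity score is the area under the fitted dose-response curve.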

[2] = test system: SK-BR-3; experiment: as above
Summary of the method: as §1

[3] = test system: MDA-MB-468; experiment: as above
Summary of the method: as §1

[4] = test system: Hs578T; experiment: normalised viability (% of control), CellTiter-Blue; higher = more viable cells (about 100 = DMSO control)
Summary of the method: (§2)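 The reported quantity is normalised viability at a single listed concentration of the series. Compound in 5 µl medium was pre-dispensed into 384-well plates and 20 µl of breast cancer cell suspension was added for 72 h. A 2 h, 37 °C CellTiter-Blue step (2.5 µl) preceded fluorescence reading at 560/590 nm, and plates were normalised to vehicle (100) and a positive kill control (0).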

[5] = test system: HCC1599; experiment: as above
Summary of the method: as §2

[6] = test system: MDA-MB-231; experiment: as above
Summary of the method: as §2

[7] = test system: MDA-MB-436; experiment: as above
Summary of the method: as §2

[8] = test system: BT-549; experiment: as above
Summary of the method: as §2

[9] = test system: HCC1143; experiment: as above
Summary of the method: as §2

[10] = test system: CAL-85-1; experiment: as above
Summary of the method: as §2

[11] = test system: MDA-MB-453; experiment: as above
Summary of the method: as §2

[12] = test system: HCC1937; experiment: as above
Summary of the method: as §2

[13] = test system: CAL-120; experiment: as above
Summary of the method: as §2

[14] = test system: SK-BR-3; experiment: as above
Summary of the method: as §2

[15] = test system: CAL-148; experiment: as above
Summary of the method: as §2

[16] = test system: MFM-223; experiment: as above
Summary of the method: as §2

[17] = test system: HDQ-P1; experiment: as above
Summary of the method: as §2

[18] = test system: CAL-51; experiment: as above
Summary of the method: as §2

[19] = test system: MDA-MB-468; experiment: as above
Summary of the method: as §2

[20] = test system: DU-4475; experiment: as above
Summary of the method: as §2

[21] = test system: BT-474; experiment: as above
Summary of the method: as §2

[22] = test system: MDA-MB-231; experiment: drug sensitivity score (DSS), CellTox Green (DSS (AUC-based score)); higher = stronger drug effect (viability inhibition or cytotoxicity); extreme values may be limits of the assay
Summary of the method: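 Breast cancer cell lines, seeded as 20 µl suspension, were incubated 72 h with compound in 384-well plates at 5 concentrations in 10-fold steps over a 10,000-fold range set for each compound. Fluorescence from CellTox Green was read at 485/520 nm before CellTiter-Glo luminescence, which was read after 10 min at room temperature. Every plate was normalised to 0.1 % DMSO and a positive kill control, and the drug sensitivity score was taken from the area under the fitted dose-response curve.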

Work on `Nc1cc(C(F)(F)F)c(-c2cc(N3CCOCC3)nc(N3CCOCC3)n2)cn1` [BKM-120] yielded a drug sensitivity score [1] of 5.44, a drug sensitivity score [2] of 16.8 and a drug sensitivity score [3] of 6.64. For the same molecule, the normalised viability ([4]; 10 nM) was 114%, the normalised viability ([4]; 1000 nM) was 88.7% and the normalised viability ([4]; 10000 nM) was 9.62%. The normalised viability ([5]; 10 nM) was 92.8%, the normalised viability ([5]; 1000 nM) was 63.6% and the normalised viability ([5]; 10000 nM) was 32.7%. It also gave a normalised viability ([6]; 10 nM) of 94.2%, a normalised viability ([6]; 1000 nM) of 69.1% and a normalised viability ([6]; 10000 nM) of 15.3%. It also gave a normalised viability ([7]; 10 nM) of 82.4%, a normalised viability ([7]; 1000 nM) of 93.8% and a normalised viability ([7]; 10000 nM) of 16.5%. It also gave a normalised viability ([8]; 10 nM) of 78.3%, a normalised viability ([8]; 1000 nM) of 62.5% and a normalised viability ([8]; 10000 nM) of 10.8%. The normalised viability ([9]; 10 nM) was 81.4%, the normalised viability ([9]; 1000 nM) was 72.8% and the normalised viability ([9]; 10000 nM) was 20.8%. For the same molecule, the normalised viability ([10]; 3 nM) was 95.8%, the normalised viability ([10]; 30 nM) was 80.2% and the normalised viability ([10]; 100 nM) was 92%. For the same molecule, the normalised viability ([11]; 3 nM) was 111%, the normalised viability ([11]; 30 nM) was 114% and the normalised viability ([11]; 100 nM) was 96.7%. The normalised viability ([12]; 10 nM) was 121%, the normalised viability ([12]; 1000 nM) was 87.9% and the normalised viability ([12]; 10000 nM) was 13.7%. The normalised viability ([13]; 10 nM) was 81.1%, the normalised viability ([13]; 1000 nM) was 54.5% and the normalised viability ([13]; 10000 nM) was 13.5%. The normalised viability ([14]; 10 nM) was 101%, the normalised viability ([14]; 1000 nM) was 24.4% and the normalised viability ([14]; 10000 nM) was 9.47%. For the same molecule, the normalised viability ([15]; 3 nM) was 94.3%, the normalised viability ([15]; 30 nM) was 104% and the normalised viability ([15]; 100 nM) was 98.7%. It also gave a normalised viability ([16]; 10 nM) of 92.2%, a normalised viability ([16]; 1000 nM) of 60.2% and a normalised viability ([16]; 10000 nM) of 14.5%. For the same molecule, the normalised viability ([17]; 3 nM) was 97.8%, the normalised viability ([17]; 30 nM) was 107% and the normalised viability ([17]; 100 nM) was 97.7%. For the same molecule, the normalised viability ([18]; 3 nM) was 100%, the normalised viability ([18]; 30 nM) was 92.1% and the normalised viability ([18]; 100 nM) was 84.3%. The normalised viability ([19]; 10 nM) was 97.7%, the normalised viability ([19]; 1000 nM) was 78.7% and the normalised viability ([19]; 10000 nM) was 15.3%. It also gave a normalised viability ([20]; 3 nM) of 104%, a normalised viability ([20]; 30 nM) of 93.3% and a normalised viability ([20]; 100 nM) of 101%. For the same molecule, the normalised viability ([21]; 10 nM) was 129%, the normalised viability ([21]; 1000 nM) was 64.3% and the normalised viability ([21]; 10000 nM) was 11.1%.

For `Nc1cc(C(F)(F)F)c(-c2cc(N3CCOCC3)nc(N3CCOCC3)n2)cn1` [Buparlisib], the drug sensitivity score [22] was 7.38.

With `CNC(=O)c1ccc(N2C(=S)N(c3ccc(C#N)c(C(F)(F)F)c3)C(=O)C2(C)C)cc1F` [Enzalutamide] the drug sensitivity score [22] was 0.

Molecule `CCOC(=O)CCNc1cc(N2CCc3ccccc3CC2)nc(-c2ccccn2)n1` [GSK-J4] has a drug sensitivity score [22] of 11.1.

`Cc1cc(Nc2cc(CN3CCOCC3)c3nc(C)c(Cc4ccc(Cl)cc4F)n3n2)n[nH]1` [Gandotinib] showed a drug sensitivity score [22] of 0.
